Results reported in ChEMBL document CHEMBL5137086, “Discovery of 1-(Hetero)aryl-β-carboline Derivatives as IDO1/TDO Dual Inhibitors with Antidepressant Activity” (J Med Chem, 2022).

Assays:
[1] = target: T1, Indoleamine 2,3-dioxygenase 1 (Homo sapiens, UniProt P14902); assay: Inhibition of IDO1 (unknown origin) assessed as reduction in kynurenine production using L-tryptophan as substrate at 50 uM incubated for 1 hr by absorbance based microplate reader analysis relative to control
Target sequence in this assay (P14902 whole entry, looked up): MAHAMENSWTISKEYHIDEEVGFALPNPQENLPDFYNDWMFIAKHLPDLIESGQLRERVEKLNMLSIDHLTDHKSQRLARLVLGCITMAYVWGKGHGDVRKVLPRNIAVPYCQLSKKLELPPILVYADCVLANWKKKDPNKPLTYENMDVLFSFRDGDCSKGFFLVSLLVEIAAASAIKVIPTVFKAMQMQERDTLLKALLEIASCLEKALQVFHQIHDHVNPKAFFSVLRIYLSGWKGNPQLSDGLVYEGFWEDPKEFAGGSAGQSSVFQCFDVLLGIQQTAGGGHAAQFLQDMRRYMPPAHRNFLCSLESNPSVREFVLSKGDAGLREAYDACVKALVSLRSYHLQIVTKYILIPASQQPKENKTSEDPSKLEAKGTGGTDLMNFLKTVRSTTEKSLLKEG

[2] = target: T1, Indoleamine 2,3-dioxygenase 1; assay: Inhibition of IDO1 (unknown origin) assessed as reduction in kynurenine production using L-tryptophan as substrate incubated for 1 hr by absorbance based microplate reader analysis
Target sequence in this assay (P14902 whole entry): as the sequence (P14902 whole entry, looked up) above

[3] = target: T2, Tryptophan 2,3-dioxygenase (Homo sapiens, UniProt P48775); assay: Inhibition of TDO (unknown origin) assessed as reduction in N-formylkynurenine formation using L-tryptophan as substrate at 50 uM incubated for 75 mins by UV absorbance based analysis relative to control
Target sequence in this assay (P48775 whole entry, looked up): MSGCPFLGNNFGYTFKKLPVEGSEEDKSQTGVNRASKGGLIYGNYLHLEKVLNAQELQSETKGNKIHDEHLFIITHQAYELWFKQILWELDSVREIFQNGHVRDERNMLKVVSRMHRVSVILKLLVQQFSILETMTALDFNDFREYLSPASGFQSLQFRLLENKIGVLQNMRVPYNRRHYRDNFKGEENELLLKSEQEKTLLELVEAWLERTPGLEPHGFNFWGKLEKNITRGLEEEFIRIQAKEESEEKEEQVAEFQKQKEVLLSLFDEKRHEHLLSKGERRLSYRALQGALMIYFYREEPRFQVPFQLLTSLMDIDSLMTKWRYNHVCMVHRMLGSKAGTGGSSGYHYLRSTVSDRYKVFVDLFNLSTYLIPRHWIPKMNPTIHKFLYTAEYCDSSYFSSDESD

[4] = target: T2, Tryptophan 2,3-dioxygenase; assay: Inhibition of TDO (unknown origin) assessed as reduction in N-formylkynurenine formation using L-tryptophan as substrate incubated for 75 mins by UV absorbance based analysis
Target sequence in this assay (P48775 whole entry): as the sequence (P48775 whole entry, looked up) above

`Clc1cc(Cl)cc(-c2nccc3c2[nH]c2ccccc23)c1` was tested, and the inhibition [1] was 75%, the IC50 [2] was 16.5 µM and the inhibition [3] was 8%.

Work on `Oc1ccc(-c2nccc3c2[nH]c2ccccc23)cc1` yielded an inhibition [1] of 24% and an inhibition [3] of 4%.

`Clc1cccc(-c2nccc3c2[nH]c2ccccc23)c1` was tested, and the inhibition [1] was 55%, the IC50 [2] was greater than 50 µM and the inhibition [3] was 88%. For the same compound, the IC50 [4] was 13.4 µM.

In the case of `c1ccc2c(c1)[nH]c1c(-c3cc[nH]n3)nccc12`, the inhibition [1] is reported as 34% and the inhibition [3] is reported as 7%.

With `O=[N+]([O-])c1cccc(-c2nccc3c2[nH]c2ccccc23)c1` the inhibition [1] was 96%, the IC50 [2] was 8.28 µM and the inhibition [3] was 6%.

`c1ccc2c(c1)[nH]c1c(-c3ccncc3)nccc12` was tested, and the inhibition [1] was 46% and the inhibition [3] was 36%.

For `c1ccc2c(c1)[nH]c1c(-c3ccoc3)nccc12`, the inhibition [1] was 5%, the inhibition [3] was 92% and the IC50 [4] was 1.14 µM.

For `c1ccc2c(c1)[nH]c1c(-c3ncc[nH]3)nccc12`, the inhibition [1] was 26% and the inhibition [3] was 4%.

Compound `N#Cc1cccc(-c2nccc3c2[nH]c2ccccc23)c1` has an inhibition [1] of 66%, an IC50 [2] greater than 50 µM and an inhibition [3] of 78%. For the same compound, the IC50 [4] was 15.3 µM.

Work on `O=C1CC(c2c[nH]c3ccc(F)cc23)C(=O)N1` (stereo unspecified) yielded an inhibition [1] of 92%.

With `Brc1cccc(-c2nccc3c2[nH]c2ccccc23)c1` the inhibition [1] was 93%, the IC50 [2] was 4.95 µM and the inhibition [3] was 65%. For the same compound, the IC50 [4] was 20.3 µM.

Compound `O=[N+]([O-])c1ccc(-c2nccc3c2[nH]c2ccccc23)cc1` has an inhibition [1] of 94%, an IC50 [2] of 8.44 µM and an inhibition [3] of 3%.

With `Brc1ccc(-c2nccc3c2[nH]c2ccccc23)cc1` the inhibition [1] was 51%, the IC50 [2] was greater than 50 µM and the inhibition [3] was 5%.

`c1ccc2c(c1)[nH]c1c(-c3cscn3)nccc12` showed an inhibition [1] of 3% and an inhibition [3] of 4%.

`c1ccc(-c2nccc3c2[nH]c2ccccc23)cc1` gave an inhibition [1] of 7%, an inhibition [3] of 86% and an IC50 [4] of 7.24 µM.

With `c1ccc2c(c1)[nH]c1c(-c3nccs3)nccc12` the inhibition [1] was 5% and the inhibition [3] was 2%.

`FC(F)(F)c1cccc(-c2nccc3c2[nH]c2ccccc23)c1` gave an inhibition [1] of 9%, an inhibition [3] of 88% and an IC50 [4] of 5.39 µM.

With `c1ccc2c(c1)[nH]c1cnccc12` [NORHARMANE] the inhibition [1] was 48%, the inhibition [3] was 86% and the IC50 [4] was 1.2 µM.

`N#Cc1ccc(-c2nccc3c2[nH]c2ccccc23)cc1` gave an inhibition [1] of 53%, an IC50 [2] greater than 50 µM and an inhibition [3] of 75%. The IC50 [4] was 12 µM.

With `FC(F)(F)c1ccc(-c2nccc3c2[nH]c2ccccc23)cc1` the inhibition [1] was 13% and the inhibition [3] was 5%.

With `Fc1cccc(-c2nccc3c2[nH]c2ccccc23)c1` the inhibition [1] was 28%, the inhibition [3] was 86% and the IC50 [4] was 10.9 µM.

Work on `c1csc(-c2nccc3c2[nH]c2ccccc23)c1` yielded an inhibition [1] of 61%, an IC50 [2] greater than 50 µM and an inhibition [3] of 82%. For the same compound, the IC50 [4] was 10.8 µM.

`c1ccc2c(c1)[nH]c1c(-c3cnn[nH]3)nccc12` showed an inhibition [1] of 91%, an IC50 [2] of 13.9 µM and an inhibition [3] of 77%. For the same compound, the IC50 [4] was 19.5 µM.

`Fc1ccc(-c2nccc3c2[nH]c2ccccc23)cc1` was tested, and the inhibition [1] was 27% and the inhibition [3] was 3%.

For `Cc1nccc2c1[nH]c1ccccc12` [HARMAN], the inhibition [1] was 34%, the inhibition [3] was 85% and the IC50 [4] was 6.31 µM.

Work on `Clc1ccc(-c2nccc3c2[nH]c2ccccc23)cc1` yielded an inhibition [1] of 86%, an IC50 [2] of 7.58 µM and an inhibition [3] of 81%. For the same compound, the IC50 [4] was 8.29 µM.

Compound `c1ccc2c(c1)[nH]c1c(-c3ccsc3)nccc12` has an inhibition [1] of 34%, an inhibition [3] of 94% and an IC50 [4] of 0.81 µM.

Work on `c1coc(-c2nccc3c2[nH]c2ccccc23)c1` yielded an inhibition [1] of 33% and an inhibition [3] of 37%.

`Fc1cc(-c2nccc3c2[nH]c2ccccc23)ccc1Br` showed an inhibition [1] of 71%, an IC50 [2] of 32.7 µM and an inhibition [3] of 4%.

Compound `c1cncc(-c2nccc3c2[nH]c2ccccc23)c1` has an inhibition [1] of 26%, an inhibition [3] of 89% and an IC50 [4] of 2.14 µM.
